Counter-ions that a name gives are not always drawn.
Assays:
Conditions in all cases: exposure time: 72 h
E28 [1] = patient-derived glioblastoma stem cells of classical subtype; assay: phenotypic distance (Euclidean, principal components) from DMSO controls (arbitrary units); higher = stronger morphological change
E34 [2] = patient-derived glioblastoma stem cells of proneural subtype; assay: as above
E31 [3] = patient-derived glioblastoma stem cells of proneural subtype; assay: as above
E13 [4] = patient-derived glioblastoma stem cells of classical subtype; assay: as above
E57 [5] = patient-derived glioblastoma stem cells of mesenchymal subtype; assay: as above
E21 [6] = patient-derived glioblastoma stem cells of mesenchymal subtype; assay: as above
FT3469 [7] = normal neural stem cell line; assay: as above
E28 [8] = assay: surviving fraction (nuclei count normalised to DMSO); higher = more cells surviving (less toxic)
E34 [9] = assay: as above
E31 [10] = assay: as above
E13 [11] = assay: as above
E57 [12] = assay: as above
E21 [13] = assay: as above
FT3469 [14] = assay: as above
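Throughout, for phenotypic distance (Euclidean, principal components) from DMSO controls: cell Painting imaging in 384-well plates, CellProfiler features reduced to at least 20 principal components, Euclidean distance versus same-plate DMSO vehicle wells (0.1% v/v), median over six images per well.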
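Throughout, for surviving fraction (nuclei count normalised to DMSO): nuclei counted by high-content imaging of Hoechst-stained cells in laminin-coated 384-well plates, relative to 0.1% DMSO vehicle wells, with staurosporine as cell-death control.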

NCCCP(=O)(O)O [3-Aminopropylphosphonic acid]
Conditions | phenotypic distance | surviving fraction
E13 [4], 4.1 nM | 0.873 | –
E13 [4], 12.3 nM | 0.485 | –
E13 [4], 37 nM | 1.1 | –
E13 [4], 111.1 nM | 0.795 | –
E13 [4], 333.3 nM | 1.09 | –
E13 [4], 1000 nM | 0.46 | –
E13 [4], 3000 nM | 0.816 | –
E13 [11], 4.1 nM | – | 0.801
E13 [11], 12.3 nM | – | 0.888
E13 [11], 37 nM | – | 1
E13 [11], 111.1 nM | – | 0.872
E13 [11], 333.3 nM | – | 0.982
E13 [11], 1000 nM | – | 0.884
E13 [11], 3000 nM | – | 0.962
E21 [6], 4.1 nM | 1.29 | –
E21 [6], 12.3 nM | 5.29 | –
E21 [6], 37 nM | 0.988 | –
E21 [6], 111.1 nM | 1.15 | –
E21 [6], 333.3 nM | 1.08 | –
E21 [6], 1000 nM | 0.704 | –
E21 [6], 3000 nM | 0.925 | –
E21 [13], 4.1 nM | – | 0.806
E21 [13], 12.3 nM | – | 0.98
E21 [13], 37 nM | – | 0.902
E21 [13], 111.1 nM | – | 0.886
E21 [13], 333.3 nM | – | 1.08
E21 [13], 1000 nM | – | 1
E21 [13], 3000 nM | – | 0.86
E28 [1], 4.1 nM | 0.627 | –
E28 [1], 12.3 nM | 0.887 | –
E28 [1], 37 nM | 1.05 | –
E28 [1], 111.1 nM | 0.933 | –
E28 [1], 333.3 nM | 1.07 | –
E28 [1], 1000 nM | 0.732 | –
E28 [1], 3000 nM | 1.53 | –
E28 [8], 4.1 nM | – | 0.762
E28 [8], 12.3 nM | – | 0.907
E28 [8], 37 nM | – | 0.775
E28 [8], 111.1 nM | – | 0.984
E28 [8], 333.3 nM | – | 0.931
E28 [8], 1000 nM | – | 0.888
E28 [8], 3000 nM | – | 0.713
E31 [3], 4.1 nM | 0.65 | –
E31 [3], 12.3 nM | 0.816 | –
E31 [3], 37 nM | 0.948 | –
E31 [3], 111.1 nM | 0.488 | –
E31 [3], 333.3 nM | 0.824 | –
E31 [3], 1000 nM | 0.792 | –
E31 [3], 3000 nM | 0.929 | –
E31 [10], 4.1 nM | – | 1.14
E31 [10], 12.3 nM | – | 0.932
E31 [10], 37 nM | – | 1
E31 [10], 111.1 nM | – | 0.983
E31 [10], 333.3 nM | – | 1.05
E31 [10], 1000 nM | – | 0.771
E31 [10], 3000 nM | – | 0.945
E34 [2], 4.1 nM | 0.981 | –
E34 [2], 12.3 nM | 3.38 | –
E34 [2], 37 nM | 1.08 | –
E34 [2], 111.1 nM | 0.945 | –
E34 [2], 333.3 nM | 0.527 | –
E34 [2], 1000 nM | 4.28 | –
E34 [2], 3000 nM | 0.559 | –
E34 [9], 4.1 nM | – | 0.923
E34 [9], 12.3 nM | – | 1.06
E34 [9], 37 nM | – | 0.998
E34 [9], 111.1 nM | – | 1.09
E34 [9], 333.3 nM | – | 1.08
E34 [9], 1000 nM | – | 1.05
E34 [9], 3000 nM | – | 1.05
E57 [5], 4.1 nM | 1.04 | –
E57 [5], 12.3 nM | 0.788 | –
E57 [5], 37 nM | 0.764 | –
E57 [5], 111.1 nM | 0.744 | –
E57 [5], 333.3 nM | 0.772 | –
E57 [5], 1000 nM | 1.04 | –
E57 [5], 3000 nM | 1.21 | –
E57 [12], 4.1 nM | – | 0.924
E57 [12], 12.3 nM | – | 0.912
E57 [12], 37 nM | – | 1.01
E57 [12], 111.1 nM | – | 1.06
E57 [12], 333.3 nM | – | 0.959
E57 [12], 1000 nM | – | 0.941
E57 [12], 3000 nM | – | 1.07
FT3469 [7], 4.1 nM | 1.45 | –
FT3469 [7], 12.3 nM | 0.83 | –
FT3469 [7], 37 nM | 0.983 | –
FT3469 [7], 111.1 nM | 0.685 | –
FT3469 [7], 333.3 nM | 0.68 | –
FT3469 [7], 1000 nM | 0.784 | –
FT3469 [7], 3000 nM | 2.45 | –
FT3469 [14], 4.1 nM | – | 0.65
FT3469 [14], 12.3 nM | – | 0.955
FT3469 [14], 37 nM | – | 0.892
FT3469 [14], 111.1 nM | – | 0.941
FT3469 [14], 333.3 nM | – | 1.09
FT3469 [14], 1000 nM | – | 1.08
FT3469 [14], 3000 nM | – | 1.06

CN1[C@@H]2CC[C@H]1CC(OC(=O)c1c[nH]c3ccccc13)C2 (stereo partly specified) [3-Tropanyl-indole-3-carboxylate hydrochloride]
Conditions | phenotypic distance | surviving fraction
E13 [4], 4.1 nM | 0.681 | –
E13 [4], 12.3 nM | 1.03 | –
E13 [4], 37 nM | 0.87 | –
E13 [4], 111.1 nM | 0.726 | –
E13 [4], 333.3 nM | 0.624 | –
E13 [4], 1000 nM | 1.01 | –
E13 [4], 3000 nM | 1.66 | –
E13 [11], 4.1 nM | – | 1.02
E13 [11], 12.3 nM | – | 0.939
E13 [11], 37 nM | – | 0.913
E13 [11], 111.1 nM | – | 0.975
E13 [11], 333.3 nM | – | 0.828
E13 [11], 1000 nM | – | 0.931
E13 [11], 3000 nM | – | 0.699
E21 [6], 4.1 nM | 0.866 | –
E21 [6], 12.3 nM | 0.871 | –
E21 [6], 37 nM | 0.74 | –
E21 [6], 111.1 nM | 0.815 | –
E21 [6], 333.3 nM | 0.781 | –
E21 [6], 1000 nM | 0.853 | –
E21 [6], 3000 nM | 1.33 | –
E21 [13], 4.1 nM | – | 0.945
E21 [13], 12.3 nM | – | 0.965
E21 [13], 37 nM | – | 0.912
E21 [13], 111.1 nM | – | 1
E21 [13], 333.3 nM | – | 0.935
E21 [13], 1000 nM | – | 0.929
E21 [13], 3000 nM | – | 0.821
E28 [1], 4.1 nM | 1.03 | –
E28 [1], 12.3 nM | 0.793 | –
E28 [1], 37 nM | 0.737 | –
E28 [1], 111.1 nM | 0.922 | –
E28 [1], 333.3 nM | 0.691 | –
E28 [1], 1000 nM | 0.845 | –
E28 [1], 3000 nM | 1.24 | –
E28 [8], 4.1 nM | – | 1.25
E28 [8], 12.3 nM | – | 0.858
E28 [8], 37 nM | – | 1.06
E28 [8], 111.1 nM | – | 0.728
E28 [8], 333.3 nM | – | 0.943
E28 [8], 1000 nM | – | 0.894
E28 [8], 3000 nM | – | 0.734
E31 [3], 4.1 nM | 0.406 | –
E31 [3], 12.3 nM | 0.329 | –
E31 [3], 37 nM | 0.778 | –
E31 [3], 111.1 nM | 0.924 | –
E31 [3], 333.3 nM | 1.07 | –
E31 [3], 1000 nM | 0.762 | –
E31 [3], 3000 nM | 0.758 | –
E31 [10], 4.1 nM | – | 0.893
E31 [10], 12.3 nM | – | 0.975
E31 [10], 37 nM | – | 0.905
E31 [10], 111.1 nM | – | 0.978
E31 [10], 333.3 nM | – | 1.17
E31 [10], 1000 nM | – | 0.945
E31 [10], 3000 nM | – | 0.906
E34 [2], 4.1 nM | 1.09 | –
E34 [2], 12.3 nM | 0.577 | –
E34 [2], 37 nM | 0.765 | –
E34 [2], 111.1 nM | 1.86 | –
E34 [2], 333.3 nM | 0.741 | –
E34 [2], 1000 nM | 1.59 | –
E34 [2], 3000 nM | 1.13 | –
E34 [9], 4.1 nM | – | 0.923
E34 [9], 12.3 nM | – | 0.963
E34 [9], 37 nM | – | 1.2
E34 [9], 111.1 nM | – | 0.942
E34 [9], 333.3 nM | – | 0.904
E34 [9], 1000 nM | – | 0.885
E34 [9], 3000 nM | – | 0.9
E57 [5], 4.1 nM | 0.753 | –
E57 [5], 12.3 nM | 0.699 | –
E57 [5], 37 nM | 0.615 | –
E57 [5], 111.1 nM | 0.914 | –
E57 [5], 333.3 nM | 0.614 | –
E57 [5], 1000 nM | 1.06 | –
E57 [5], 3000 nM | 1.1 | –
E57 [12], 4.1 nM | – | 0.904
E57 [12], 12.3 nM | – | 0.959
E57 [12], 37 nM | – | 1.02
E57 [12], 111.1 nM | – | 1.02
E57 [12], 333.3 nM | – | 1.02
E57 [12], 1000 nM | – | 1.04
E57 [12], 3000 nM | – | 0.94
FT3469 [7], 4.1 nM | 0.942 | –
FT3469 [7], 12.3 nM | 0.464 | –
FT3469 [7], 37 nM | 2.87 | –
FT3469 [7], 111.1 nM | 0.576 | –
FT3469 [7], 333.3 nM | 0.57 | –
FT3469 [7], 1000 nM | 0.775 | –
FT3469 [7], 3000 nM | 0.616 | –
FT3469 [14], 4.1 nM | – | 1.11
FT3469 [14], 12.3 nM | – | 0.924
FT3469 [14], 37 nM | – | 1.07
FT3469 [14], 111.1 nM | – | 1.06
FT3469 [14], 333.3 nM | – | 0.843
FT3469 [14], 1000 nM | – | 0.927
FT3469 [14], 3000 nM | – | 0.855
